Test system: KRas G12D-mediated phosphorylation of ERK
Experiment: Inhibition of KRas G12D-mediated phosphorylation of ERK in AGS cells
Assay type: cell-based
Conditions: Homo sapiens; AGS cells expressing G12D, 3 hours, phospho-ERK normalized to GAPDH
In short: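 Fixed, methanol-permeabilized; phospho-ERK (Thr202/Tyr204) by in-cell immunofluorescence normalized to GAPDH. Percent of DMSO control, IC50 by 4-parameter fit.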

SMILES | IC50
CCc1c(Cl)cccc1-c1ncc2c(N3C[C@H]4CC[C@@H](C3)N4)nc(OCC34CCCN3CCC4)nc2c1F [Example 312, 4-((1R,5S)-3,8-diazabicyclo[3.2.1]octan-3-yl)-7-(3-chloro-2-ethylphenyl)-8-fluoro-2-((hexahydro-1H-pyrrolizin-7a-yl)methoxy)pyrido[4,3-d]pyrimidine] | 1.88 µM
CC1CCCc2cccc(-c3ncc4c(N5CC6CCC(C5)N6)nc(OC[C@@H]5CCCN5C)nc4c3F)c21 (stereo partly drawn) [Example 133, 4-((1R,5S)-3,8-diazabicyclo[3.2.1]octan-3-yl)-8-fluoro-7-(8-methyl-5,6,7,8-tetrahydronaphthalen-1-yl)-2-(((S)-1-methylpyrrolidin-2-yl)methoxy)pyrido[4,3-d]pyrimidine] | 2.05 µM
Cc1cccc(-c2ncc3c(N4C[C@H]5CC[C@@H](C4)N5)nc(OCC45CCCN4CCC5)nc3c2F)c1Cl [Example 276, 4-((1R,5S)-3,8-diazabicyclo[3.2.1]octan-3-yl)-7-(2-chloro-3-methylphenyl)-8-fluoro-2-((hexahydro-1H-pyrrolizin-7a-yl)methoxy)pyrido[4,3-d]pyrimidine] | 3.79 µM
O[C@@H]1C[C@@H]2CN(c3nc(OCCn4ccnc4CF)nc4c(F)c(-c5cccc6cccc(Cl)c56)ncc34)C[C@H]1N2 [Example 168, (1R,5R,6R)-3-(7-(8-chloronaphthalen-1-yl)-8-fluoro-2-(2-(2-(fluoromethyl)-1H-imidazol-1-yl)ethoxy)pyrido[4,3-d]pyrimidin-4-yl)-3,8-diazabicyclo[3.2.1]octan-6-ol] | > 16.7 µM
CN1CCC[C@H]1COc1nc(N2C[C@H]3CC[C@@H](C2)N3)c2cnc(-c3cccc4c3C3(CC4)CC3)c(F)c2n1 [Example 162, 4-((1R,5S)-3,8-diazabicyclo[3.2.1]octan-3-yl)-7-(2′,3′-dihydrospiro[cyclopropane-1,1′-inden]-7′-yl)-8-fluoro-2-(((S)-1-methylpyrrolidin-2-yl)methoxy)pyrido[4,3-d]pyrimidine bis(2,2,2-trifluoroacetate)] | > 16.7 µM
Oc1cc(-c2ncc3c(N4C[C@H]5CC[C@@H](C4)N5)nc(OC4CCOCC4)nc3c2F)c2ccccc2c1 [Example 72, 4-(4-((1R,5S)-3,8-diazabicyclo[3.2.1]octan-3-yl)-8-fluoro-2-((tetrahydro-2H-pyran-4-yl)oxy)pyrido[4,3-d]pyrimidin-7-yl)naphthalen-2-ol] | 7.26 µM
CC(C)c1ccccc1-c1ncc2c(N3CC4CCC(C3)N4)nc(OCC34CCCN3C[C@H](F)C4)nc2c1F (stereo partly drawn) [Example 348, 4-((1R,5S)-3,8-diazabicyclo[3.2.1]octan-3-yl)-8-fluoro-2-((2-fluorotetrahydro-1H-pyrrolizin-7a(5H)-yl)methoxy)-7-(2-isopropylphenyl)pyrido[4,3-d]pyrimidine] | 0.779 µM
Oc1cc(-c2ncc3c(N4C[C@H]5CC[C@@H](C4)N5)nc(OC[C@@H]4CC5CCN4C5)nc3c2F)c2ccccc2c1 [Example 40, 4-(2-(((2S)-1-azabicyclo[2.2.1]heptan-2-yl)methoxy)-4-((1R,5S)-3,8-diazabicyclo[3.2.1]octan-3-yl)-8-fluoropyrido[4,3-d]pyrimidin-7-yl)naphthalen-2-ol] | 4.24 µM
Cc1cccc(CCOc2nc(N3C[C@H]4CC[C@@H](C3)N4)c3cnc(-c4cc(O)cc5ccccc45)c(F)c3n2)n1 [Example 87, 4-(4-((1R,5S)-3,8-diazabicyclo[3.2.1]octan-3-yl)-8-fluoro-2-(2-(6-methylpyridin-2-yl)ethoxy)pyrido[4,3-d]pyrimidin-7-yl)naphthalen-2-ol] | 10.6 µM
CC(C)N1CCC[C@H]1COc1nc(N2C[C@H]3CC[C@@H](C2)N3)c2cnc(-c3cccc4cccc(Cl)c34)c(F)c2n1 [Example 29, 4-((R,5S)-3,8-diazabicyclo[3.2.1]octan-3-yl)-7-(8-chloronaphthalen-1-yl)-8-fluoro-2-(((S)-1-isopropylpyrrolidin-2-yl)methoxy)pyrido[4,3-d]pyrimidine] | 13.6 µM
CN1CCC[C@H]1COc1nc(N2CC3CCC(C2)N3)c2cnc(-c3c(Cl)c(O)cc4ccccc34)c(F)c2n1 [Example 337, 4-(4-(3,8-diazabicyclo[3.2.1]octan-3-yl)-8-fluoro-2-(((S)-1-methylpyrrolidin-2-yl)methoxy)pyrido[4,3-d]pyrimidin-7-yl)-3-chloronaphthalen-2-ol] | 1.62 µM
Cc1cccc2cccc(-c3ncc4c(N5C[C@H]6CC[C@@H](C5)N6)nc(OC[C@@H]5CCCN5C)nc4c3F)c12 [Example 15, 4-((1R,5S)-3,8-diazabicyclo[3.2.1]octan-3-yl)-8-fluoro-7-(8-methylnaphthalen-1-yl)-2-(((S)-1-methylpyrrolidin-2-yl)methoxy)pyrido[4,3-d]pyrimidine] | > 16.7 µM
OCc1cccc2cccc(-c3ncc4c(N5C[C@H]6CC[C@@H](C5)N6)nc(OCC56CCCN5CCC6)nc4c3F)c12 [Example 238, (8-(4-((1R,5S)-3,8-diazabicyclo[3.2.1]octan-3-yl)-8-fluoro-2-((tetrahydro-1H-pyrrolizin-7a(5H)-yl)methoxy)pyrido[4,3-d]pyrimidin-7-yl)naphthalen-1-yl)methanol] | 4.66 µM
Fc1c(-c2cccc(Cl)c2C(F)(F)F)ncc2c(N3C[C@H]4CC[C@@H](C3)N4)nc(OCC34CCCN3CCC4)nc12 [Example 328, 4-((1R,5S)-3,8-diazabicyclo[3.2.1]octan-3-yl)-7-(3-chloro-2-(trifluoromethyl)phenyl)-8-fluoro-2-((tetrahydro-1H-pyrrolizin-7a(5H)-yl)methoxy)pyrido[4,3-d]pyrimidine] | 0.897 µM
COCCCOc1nc(N2C[C@H]3CC[C@@H](C2)N3)c2cnc(-c3cc(O)cc4ccccc34)c(F)c2n1 [Example 68, 4-(4-((1R,5S)-3,8-diazabicyclo[3.2.1]octan-3-yl)-8-fluoro-2-(3-methoxypropoxy)pyrido[4,3-d]pyrimidin-7-yl)naphthalen-2-ol] | 7.53 µM
CCCOc1nc(N2C[C@H]3CC[C@@H](C2)N3)c2cnc(-c3cc(O)cc4ccccc34)c(F)c2n1 [Example 47, 4-(4-((1R,5S)-3,8-diazabicyclo[3.2.1]octan-3-yl)-8-fluoro-2-propoxypyrido[4,3-d]pyrimidin-7-yl)naphthalen-2-ol] | 4.45 µM
FCCCc1cccc2cccc(-c3ncc4c(N5C[C@H]6CC[C@@H](C5)N6)nc(OCC56CCCN5CCC6)nc4c3F)c12 [Example 255, 4-((1R,5S)-3,8-diazabicyclo[3.2.1]octan-3-yl)-8-fluoro-7-(8-(3-fluoropropyl)naphthalen-1-yl)-2-((hexahydro-1H-pyrrolizin-7a-yl)methoxy)pyrido[4,3-d]pyrimidine] | 0.673 µM
CCCc1cccc2cccc(-c3ncc4c(N5C[C@H]6CC[C@@H](C5)N6)nc(OCC56CCCN5CCC6)nc4c3F)c12 [Example 254, 4-((1R,5S)-3,8-diazabicyclo[3.2.1]octan-3-yl)-8-fluoro-2-((hexahydro-1H-pyrrolizin-7a-yl)methoxy)-7-(8-propylnaphthalen-1-yl)pyrido[4,3-d]pyrimidine] | 2.43 µM
Cn1ccnc1COc1nc(N2C[C@H]3CC[C@@H](C2)N3)c2cnc(-c3cc(O)cc4ccccc34)c(F)c2n1 [Example 104, 4-(4-((1R,5S)-3,8-diazabicyclo[3.2.1]octan-3-yl)-8-fluoro-2-((1-methyl-1H-imidazol-2-yl)methoxy)pyrido[4,3-d]pyrimidin-7-yl)naphthalen-2-ol] | > 16.7 µM
